# Reference: PubChem BioAssay (NCI)
#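 The compound was tested at five concentrations on cells cultured in 96-well plates, with a 48-hour exposure period. The concentration for 50% growth inhibition is given as GI50. TGI denotes the concentration required for complete inhibition of growth.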
# How the values were obtained:
# Assay in all cases: growth of human tumour cells (NCI), 48 h
# [1] = system: IGROV1 ovarian
# [2] = system: MDA-MB-231 breast
# [3] = system: MALME-3M melanoma
# [4] = system: SK-MEL-5 melanoma
# [5] = system: UO-31 renal
# [6] = system: A549 NSCLC
# [7] = system: UACC-257 melanoma
# [8] = system: SNB-19 CNS
# [9] = system: T-47D breast
# [10] = system: CCRF-CEM leukemia
# [11] = system: K-562 leukemia
# [12] = system: RPMI-8226 leukemia
# [13] = system: HT29 colon
# [14] = system: OVCAR-8 ovarian
# [15] = system: HCT-116 colon
# [16] = system: UACC-62 melanoma
# [17] = system: KM12 colon
# [18] = system: NCI-H23 lung
# [19] = system: SF-295 CNS
# [20] = system: U251 CNS
# [21] = system: EKVX NSCLC
# [22] = system: OVCAR-4 ovarian
# [23] = system: A498 renal
# [24] = system: HOP-92 NSCLC
# [25] = system: DU-145 prostate
# [26] = system: NCI-H226 lung
# [27] = system: MOLT-4 leukemia
# [28] = system: BT-549 breast
# [29] = system: HCT-15 colon
# [30] = system: SK-OV-3 ovarian
# [31] = system: NCI-H460 lung
# [32] = system: HS 578T breast
# [33] = system: SK-MEL-28 melanoma
# [34] = system: HCC-2998 colon
# [35] = system: HL-60(TB) leukemia
# [36] = system: SF-539 CNS
# [37] = system: NCI/ADR-RES ovarian
# [38] = system: OVCAR-5 ovarian
# [39] = system: TK-10 renal
# [40] = system: NCI-H522 lung
# [41] = system: PC-3 prostate
# [42] = system: ACHN renal
# [43] = system: M14 melanoma
# [44] = system: SK-MEL-2 melanoma
# [45] = system: 786-0 renal
# [46] = system: LOX IMVI melanoma
# [47] = system: MDA-MB-435
# [48] = system: MCF7 breast
# [49] = system: SW-620 colon
# [50] = system: RXF 393 renal
# [51] = system: HOP-62 NSCLC
# [52] = system: SF-268 CNS
# [53] = system: SN12C renal
# [54] = system: OVCAR-3 ovarian
# [55] = system: COLO 205 colon
# [56] = system: CAKI-1 renal
# [57] = system: SNB-75 CNS
# [58] = system: SR leukemia
smiles,measurement,setting,value
O=C(CC1(O)C(=O)Nc2ccc(F)cc21)c1ccc(C(=O)NCC2CCC3(CC2)OOC2(CCCCC2)OO3)cc1 (centres undefined),GI50,[1],1.64 µM
same,TGI,[1],6.63 µM
same,GI50,[2],9.92 µM
same,TGI,[2],29.9 µM
same,GI50,[3],2.21 µM
same,TGI,[3],5.13 µM
same,GI50,[4],3.69 µM
same,TGI,[4],14.4 µM
same,GI50,[5],0.858 µM
same,TGI,[5],2.28 µM
same,GI50,[6],2.49 µM
same,TGI,[6],5.81 µM
same,GI50,[7],12.7 µM
same,TGI,[7],29.9 µM
same,GI50,[8],14.8 µM
same,TGI,[8],36.5 µM
same,GI50,[9],5 µM
same,TGI,[9],44.2 µM
same,GI50,[10],1.81 µM
same,TGI,[10],4.3 µM
same,GI50,[11],3.49 µM
same,TGI,[11],21.9 µM
same,GI50,[12],2.57 µM
same,TGI,[12],8.55 µM
same,GI50,[13],11.7 µM
same,TGI,[13],28 µM
same,GI50,[14],6.3 µM
same,TGI,[14],35.8 µM
same,GI50,[15],8.66 µM
same,TGI,[15],32 µM
same,GI50,[16],12.2 µM
same,TGI,[16],29 µM
same,GI50,[17],4.09 µM
same,TGI,[17],17.5 µM
same,GI50,[18],3.62 µM
same,TGI,[18],19.9 µM
same,GI50,[19],3.69 µM
same,TGI,[19],16.2 µM
same,GI50,[20],3.18 µM
same,TGI,[20],11.3 µM
same,GI50,[21],1.87 µM
same,TGI,[21],3.98 µM
same,GI50,[22],7.74 µM
same,TGI,[22],32.5 µM
same,GI50,[23],13.3 µM
same,TGI,[23],29.4 µM
same,GI50,[24],1.91 µM
same,TGI,[24],3.82 µM
same,GI50,[25],3.49 µM
same,TGI,[25],12.2 µM
same,GI50,[26],10.3 µM
same,TGI,[26],32.2 µM
same,GI50,[27],3.72 µM
same,TGI,[27],28.8 µM
same,GI50,[28],12.6 µM
same,TGI,[28],34.6 µM
same,GI50,[29],11.4 µM
same,TGI,[29],27.9 µM
same,GI50,[30],14.1 µM
same,TGI,[30],31.9 µM
same,GI50,[31],2.52 µM
same,TGI,[31],6.47 µM
same,GI50,[32],11.4 µM
same,TGI,[32],47.4 µM
same,GI50,[33],13.9 µM
same,TGI,[33],32.4 µM
same,GI50,[34],14.6 µM
same,TGI,[34],30 µM
same,GI50,[35],1.43 µM
same,TGI,[35],3.46 µM
same,GI50,[36],3.64 µM
same,TGI,[36],14.8 µM
same,GI50,[37],15.9 µM
same,TGI,[37],48.3 µM
same,GI50,[38],15.7 µM
same,TGI,[38],36.5 µM
same,GI50,[39],2.03 µM
same,TGI,[39],4.36 µM
same,GI50,[40],1.21 µM
same,TGI,[40],2.71 µM
same,GI50,[41],3.86 µM
same,TGI,[41],19.3 µM
same,GI50,[42],2.89 µM
same,TGI,[42],10.7 µM
same,GI50,[43],12.2 µM
same,TGI,[43],39.3 µM
same,GI50,[44],5.95 µM
same,TGI,[44],20.7 µM
same,GI50,[45],2 µM
same,TGI,[45],3.81 µM
same,GI50,[46],0.309 µM
same,TGI,[46],1.27 µM
same,GI50,[47],3.04 µM
same,TGI,[47],10.8 µM
same,GI50,[48],8.23 µM
same,TGI,[48],29 µM
same,GI50,[49],7.72 µM
same,TGI,[49],27.4 µM
same,GI50,[50],6.19 µM
same,TGI,[50],21.7 µM
same,GI50,[51],3.64 µM
same,TGI,[51],12.3 µM
same,GI50,[52],10.8 µM
same,TGI,[52],30.8 µM
same,GI50,[53],10.8 µM
same,TGI,[53],33.6 µM
same,GI50,[54],1.85 µM
same,TGI,[54],4.18 µM
same,GI50,[55],5.37 µM
same,TGI,[55],22.9 µM
same,GI50,[56],14 µM
same,TGI,[56],27.7 µM
O=C1c2cccnc2-c2nc(-c3cccnc3)cc3c2c1nc1ccccc13,GI50,[1],3.12 µM
same,TGI,[1],28.4 µM
same,GI50,[2],4.43 µM
same,TGI,[2],> 72 µM
same,GI50,[3],17.6 µM
same,TGI,[3],32.4 µM
same,GI50,[4],1.55 µM
same,TGI,[4],3.46 µM
same,GI50,[5],15.2 µM
same,TGI,[5],37.3 µM
same,GI50,[6],3.97 µM
same,TGI,[6],15.6 µM
same,GI50,[7],10.1 µM
same,TGI,[7],15.1 µM
same,GI50,[8],5.59 µM
same,TGI,[8],21 µM
same,GI50,[9],10.4 µM
same,TGI,[9],> 65.2 µM
same,GI50,[10],5.23 µM
same,TGI,[10],> 100 µM
same,GI50,[11],1.67 µM
same,TGI,[11],> 100 µM
same,GI50,[57],2.34 µM
same,TGI,[57],6.91 µM
same,GI50,[12],2.59 µM
same,TGI,[12],> 100 µM
same,GI50,[13],2.52 µM
same,GI50,[14],1.31 µM
same,TGI,[14],3.96 µM
same,GI50,[15],2.8 µM
same,TGI,[15],> 32.7 µM
same,GI50,[16],13.3 µM
same,TGI,[16],28.3 µM
same,GI50,[17],4.16 µM
same,TGI,[17],> 44.5 µM
same,GI50,[18],3.7 µM
same,TGI,[18],20.7 µM
same,GI50,[19],1.92 µM
same,TGI,[19],3.71 µM
same,GI50,[20],3.61 µM
same,TGI,[20],> 100 µM
same,GI50,[21],10.6 µM
same,TGI,[21],32.7 µM
same,GI50,[22],5.07 µM
same,TGI,[22],19.8 µM
same,GI50,[23],17.7 µM
same,TGI,[23],46.8 µM
same,GI50,[24],6.44 µM
same,TGI,[24],80.6 µM
same,GI50,[25],3 µM
same,TGI,[25],8.31 µM
same,GI50,[26],2.02 µM
same,TGI,[26],5.53 µM
same,GI50,[27],3.21 µM
same,TGI,[27],> 41.3 µM
same,GI50,[28],4.53 µM
same,TGI,[28],9.5 µM
same,GI50,[29],1.63 µM
same,TGI,[29],4.58 µM
same,GI50,[30],15.3 µM
same,TGI,[30],29.8 µM
same,GI50,[31],2.16 µM
same,GI50,[32],2.94 µM
same,TGI,[32],> 20.9 µM
same,GI50,[33],20.5 µM
same,TGI,[33],59 µM
same,GI50,[35],2.11 µM
same,TGI,[35],> 100 µM
same,GI50,[36],1.72 µM
same,TGI,[36],3.6 µM
same,GI50,[37],3.12 µM
same,TGI,[37],> 23.9 µM
same,GI50,[38],12.2 µM
same,TGI,[38],30.1 µM
same,GI50,[40],1.74 µM
same,TGI,[40],4.35 µM
same,GI50,[41],4.4 µM
same,TGI,[41],26.7 µM
same,GI50,[42],1.55 µM
same,TGI,[42],2.88 µM
same,GI50,[43],1.93 µM
same,TGI,[43],3.51 µM
same,GI50,[44],18 µM
same,TGI,[44],33.8 µM
same,GI50,[45],2.74 µM
same,TGI,[45],8.85 µM
same,GI50,[46],2.8 µM
same,TGI,[46],> 25.1 µM
same,GI50,[47],5.58 µM
same,TGI,[47],32 µM
same,TGI,[58],> 100 µM
same,GI50,[48],1.64 µM
same,TGI,[48],3.32 µM
same,GI50,[49],2.28 µM
same,TGI,[49],5.63 µM
same,GI50,[50],3.95 µM
same,TGI,[50],11.3 µM
same,GI50,[51],1.73 µM
same,TGI,[51],3.22 µM
same,GI50,[52],3.73 µM
same,TGI,[52],> 26.5 µM
same,GI50,[53],2.18 µM
same,TGI,[53],5.02 µM
same,GI50,[55],3.33 µM
same,TGI,[55],10.9 µM
same,GI50,[56],6.96 µM
same,TGI,[56],22.8 µM
